Values of other authors in patent publication US20050255458A1, “Drug discovery assays based on the biology of chronic disease” (priority 2002, published 2005).
Where two headings read alike, the source gives them in different places. Where a SMILES comes first, the peptide text is derived from it. [ ]: non-standard residue; d: D form. Aoe = N[C@@H](CCCCCC(=O)[C@@H]1CO1)C(=O)O

What was measured:
anagen hair follicles = conditions: cited from earlier work; for scalp hair growth: Philpott 1996
TF = conditions: cited from earlier work; for effect on Cu^+2 induced procoagulant activity: probucol 20, vitamin E 50, BHT 50, U74389G 20 μmol/L
AR gene = conditions: cited from earlier work
Rb = conditions: cited from earlier work; for increase in Rb mRNA: MEL cells, maximum on day three of induction
ERK1/2 = conditions: cited studies, various cells; cited from earlier work
ERK [1] = conditions: cited from earlier work
ERK [2] = conditions: A variety of cell types; cited from earlier work
[3] = system: obese (fa/fa) Zucker rats; conditions: cited from earlier work

## CNc1ccc2oc(C[C@H]3O[C@@]4(CC[C@H]3C)O[C@H]([C@H](C)C(=O)c3ccc[nH]3)[C@H](C)C[C@H]4C)nc2c1C(=O)O [A 23187]
Anagen hair follicles; 6 days culture, A 23187 2 μM, TPA 1 μM, IL-1 100 ng per ml (Hoffmann 1997)
  hair growth: significantly inhibited hair growth

## Cc1cc(C(C)(C)C)c(O)c(C(C)(C)C)c1 [BHT]
TF
  effect on Cu^+2 induced procoagulant activity: inhibited the Cu^+2 induced procoagulant activity

## [Cu+2] [Cu+2]
TF; at 2 hours
  TF mRNA level: 50%
TF; at 6 hours
  increase of TF mRNA: 3.5 fold

## CC(=O)O[C@]1(C(C)=O)CC[C@H]2[C@@H]3C=C(Cl)C4=CC(=O)[C@@H]5C[C@@H]5[C@]4(C)[C@H]3CC[C@@]21C [Cyproterone acetate]
AR gene; LNCaP
  Effect on [mRNAAR]: ↓[mRNAAR]

## C[S+](C)[O-] [DMSO, dimethyl sulfoxide]
Rb
  increase in Rb mRNA: 11 fold

## CC(=O)NCCCCCCNC(C)=O [HMBA, hexamethylene bisacetamide]
Rb; DS19/Sc9, 48 h of culture
  cells irreversibly committed to differentiate: Over 90%
Rb; DS19/Sc9
  increase in Rb transcription: 3.6 fold
Rb; DS19/Sc9 asynchronous cultures
  increase in total pRb: 2-to 3 fold
Rb
  increase in Rb mRNA: 7 fold

## C[C@]12C=CC(=O)C=C1CC[C@@H]1C2=CC[C@]2(C)[C@@H](C(=O)CN3CCN(c4cc(N5CCCC5)nc(N5CCCC5)n4)CC3)CC[C@@H]12.O=C(O)/C=C\C(=O)O [U74389G]
TF
  effect on Cu^+2 induced procoagulant activity: inhibited the Cu^+2 induced procoagulant activity

## [Cu] [copper]
ERK1/2
  phosphorylation of ERK1/2: phosphorylation of ERK1/2

## CC[C@H]1CN2CCc3cc(OC)c(OC)cc3[C@@H]2C[C@@H]1C[C@H]1NCCc2cc(OC)c(OC)cc21 [emetine]
ERK [1]; starfish eggs
  c-mos expression and ERK phosphorylation: inhibition of c-mos expression and ERK phosphorylation

## C[C@]12CC[C@@H]3c4ccc(O)cc4CC[C@H]3[C@@H]1CCC2=O [estron]
ERK1/2
  phosphorylation of ERK1/2: phosphorylation of ERK1/2

## CC[C@H](C)[C@@H]1NC(=O)[C@H](Cc2ccc(O)cc2)NC(=O)[C@@H](N)CSSC[C@@H](C(=O)N2CCC[C@H]2C(=O)N[C@@H](CC(C)C)C(=O)NCC(N)=O)NC(=O)[C@H](CC(N)=O)NC(=O)[C@H](CCC(N)=O)NC1=O [oxytocin]
ERK1/2
  phosphorylation of ERK1/2: phosphorylation of ERK1/2

## CC(C)(Sc1cc(C(C)(C)C)c(O)c(C(C)(C)C)c1)Sc1cc(C(C)(C)C)c(O)c(C(C)(C)C)c1 [probucol]
TF
  effect on Cu^+2 induced procoagulant activity: inhibited the Cu^+2 induced procoagulant activity

## C/C=C(/C)C(=O)O[C@H]1C(C)=C2[C@H]([C@@H]1OC(=O)CCCCCCC)[C@@](C)(OC(C)=O)C[C@H](OC(=O)CCC)[C@@]1(O)[C@H]2OC(=O)[C@@]1(C)O [thapsigargin]
ERK1/2
  phosphorylation of ERK1/2: phosphorylation of ERK1/2

## O=C1N[C@@H](Cc2ccccc2)C(=O)N2CCC[C@@H]2C(=O)N[C@@H](CCCCCC(=O)[C@@H]2CO2)C(=O)N[C@H]1Cc1ccccc1 [trapoxin] (cyclo(FF[dP][Aoe]))
ERK1/2
  phosphorylation of ERK1/2: phosphorylation of ERK1/2

## CC(/C=C/C(=O)NO)=C\[C@@H](C)C(=O)c1ccc(N(C)C)cc1 [trichostatin A]
ERK1/2
  phosphorylation of ERK1/2: phosphorylation of ERK1/2

## [Zn] [zinc]
ERK1/2
  phosphorylation of ERK1/2: phosphorylation of ERK1/2

## IL-β: printed IL-β, presumably IL-1β
Anagen hair follicles
  scalp hair growth: inhibition of scalp hair growth

## TNFα
AR gene; LNCaP
  AR transcription in run-on assays: No change in run-on
  Effect on [mRNAAR]: ↓[mRNAAR]
ERK [2]
  Effect on [ERK^phos]: ↑[ERK^phos]
Anagen hair follicles
  scalp hair growth: inhibition of scalp hair growth
[3]; 50 ng/rat
  decrease of nighttime feeding (12 hours): 13%
  decrease of short-term feeding (4 hours): 17%
  decrease of total daily food intake: 11%
[3]; 100 ng/rat
  decrease of nighttime feeding (12 hours): 14%
  decrease of short-term feeding (4 hours): 20%
  decrease of total daily food intake: 12%
[3]; 500 ng/rat
  decrease of nighttime feeding (12 hours): 13%
  decrease of short-term feeding (4 hours): 20%
  decrease of total daily food intake: 11%

## estrogen
Anagen hair follicles; Kondo 1990
  growth of isolated hair follicles: growth inhibition

## interferon-γ: ERK agent cytokine
ERK1/2
  phosphorylation of ERK1/2: phosphorylation of ERK1/2

## interleukin 1β: cytokine, ERK agent
ERK1/2
  phosphorylation of ERK1/2: phosphorylation of ERK1/2

## interleukin 6: cytokine, ERK agent
AR gene; LNCaP (Lin 2001)
  AR mRNA: decreased AR mRNA
ERK1/2
  phosphorylation of ERK1/2: phosphorylation of ERK1/2
ERK [1]; AF-10 human B cell line
  ERK phosphorylation: increased ERK phosphorylation
ERK [1]; LNCaP cells
  ERK phosphorylation: increased ERK phosphorylation

## transforming growth factor β
ERK1/2
  phosphorylation of ERK1/2: phosphorylation of ERK1/2

## tumor necrosis factor α
ERK1/2
  phosphorylation of ERK1/2: phosphorylation of ERK1/2
